Organism: Rattus norvegicus
Test: DrugMatrix - Regimen: Daily Repeat
Format: toxicity, organism-based, Sprague-Dawley
Set-up: regimen Daily Repeat, gender Male, age 6-8 weeks
Settings: in vivo, po, route oral GAVAGE, vehicle 100 % WATER; for ABSOLUTE BASOPHIL / ABSOLUTE EOSINOPHIL / ABSOLUTE LYMPHOCYTE / ABSOLUTE MONOCYTE / ABSOLUTE SEGMENTED NEUTROPHIL / BASOPHIL / EOSINOPHIL / ERYTHROCYTE COUNT / HEMATOCRIT / HEMOGLOBIN / LEUKOCYTE COUNT / LYMPHOCYTE / MEAN CORPUSCULAR HEMOGLOBIN / MEAN CORPUSCULAR HEMOGLOBIN CONCENTRATION / MEAN CORPUSCULAR VOLUME / MONOCYTE / NEUTROPHIL / NUCLEATED RED BLOOD CELLS / PLATELET COUNT: tissue Blood; for ALANINE AMINOTRANSFERASE / ALBUMIN / ALKALINE PHOSPHATASE / ASPARTATE AMINOTRANSFERASE / BLOOD UREA NITROGEN / CARBON DIOXIDE / CHLORIDE / CHOLESTEROL / CREATINE PHOSPHOKINASE / CREATININE / GLUCOSE / LACTATE DEHYDROGENASE / LIPASE / PHOSPHORUS / POTASSIUM / SODIUM / TOTAL BILIRUBIN / TOTAL PROTEIN / URIC ACID: tissue Plasma
[1] = 17 mg/kg, 72 h, dose level High, time 3 day
[2] = 17 mg/kg, 120 h, dose level High, time 5 day
[3] = […], 72 h, dose 1.7 mg/Kg, dose level Low, time 3 day
[4] = […], 120 h, dose 1.7 mg/Kg, dose level Low, time 5 day

For `COP(=O)(OC)OC=C(Cl)Cl` [DICHLORVOS], the “ABSOLUTE BASOPHIL” value [1] was 0 CELLS/uL, the “ABSOLUTE EOSINOPHIL” value [1] was 43.33 CELLS/uL and the “ABSOLUTE LYMPHOCYTE” value [1] was 12252 CELLS/uL. For the same compound, the “ABSOLUTE MONOCYTE” value [1] was 527.33 CELLS/uL, the “ABSOLUTE SEGMENTED NEUTROPHIL” value [1] was 1577.33 CELLS/uL and the BASOPHIL [1] was 0%. For the same compound, the EOSINOPHIL [1] was 0.33%, the “ERYTHROCYTE COUNT” value [1] was 5.59 x10E6/uL and the HEMATOCRIT [1] was 34.9%. The HEMOGLOBIN [1] was 13.5 G/DL, the “LEUKOCYTE COUNT” value [1] was 14.4 x10E3/uL and the LYMPHOCYTE [1] was 85%. The “MEAN CORPUSCULAR HEMOGLOBIN” value [1] was 24.17 pg, the “MEAN CORPUSCULAR HEMOGLOBIN CONCENTRATION” value [1] was 38.7 G/DL and the “MEAN CORPUSCULAR VOLUME” value [1] was 62.53 fL. The MONOCYTE [1] was 3.67%, the NEUTROPHIL [1] was 11% and the “NUCLEATED RED BLOOD CELLS” value [1] was 0 /100WBC. For the same compound, the “PLATELET COUNT” value [1] was 1225.67 x10E3/uL, the “ALANINE AMINOTRANSFERASE” value [1] was 49.67 u/L and the ALBUMIN [1] was 4 G/DL. The “ALKALINE PHOSPHATASE” value [1] was 370.33 u/L, the “ASPARTATE AMINOTRANSFERASE” value [1] was 92 u/L and the “BLOOD UREA NITROGEN” value [1] was 17.67 mg/dL. The “CARBON DIOXIDE” value [1] was 27 mmol/L, the CHLORIDE [1] was 104.33 MEQ/L and the CHOLESTEROL [1] was 63.67 mg/dL. The “CREATINE PHOSPHOKINASE” value [1] was 448 u/L, the CREATININE [1] was 0.2 mg/dL and the GLUCOSE [1] was 141 mg/dL. For the same compound, the “LACTATE DEHYDROGENASE” value [1] was 444.33 u/L, the LIPASE [1] was 8.33 u/L and the PHOSPHORUS [1] was 12.67 mg/dL. For the same compound, the POTASSIUM [1] was 6.46 MEQ/L, the SODIUM [1] was 145.9 MEQ/L and the “TOTAL BILIRUBIN” value [1] was 0.2 mg/dL. The “TOTAL PROTEIN” value [1] was 5.77 G/DL, the “URIC ACID” value [1] was 1.23 mg/dL and the “ABSOLUTE BASOPHIL” value [2] was 0 CELLS/uL. The “ABSOLUTE EOSINOPHIL” value [2] was 213.33 CELLS/uL, the “ABSOLUTE LYMPHOCYTE” value [2] was 13980 CELLS/uL and the “ABSOLUTE MONOCYTE” value [2] was 329.33 CELLS/uL. For the same compound, the “ABSOLUTE SEGMENTED NEUTROPHIL” value [2] was 1944 CELLS/uL, the BASOPHIL [2] was 0% and the EOSINOPHIL [2] was 1.33%. For the same compound, the “ERYTHROCYTE COUNT” value [2] was 5.69 x10E6/uL, the HEMATOCRIT [2] was 34.17% and the HEMOGLOBIN [2] was 13.03 G/DL. The “LEUKOCYTE COUNT” value [2] was 16.47 x10E3/uL, the LYMPHOCYTE [2] was 85% and the “MEAN CORPUSCULAR HEMOGLOBIN” value [2] was 22.9 pg. The “MEAN CORPUSCULAR HEMOGLOBIN CONCENTRATION” value [2] was 38.13 G/DL, the “MEAN CORPUSCULAR VOLUME” value [2] was 60.07 fL and the MONOCYTE [2] was 2%. For the same compound, the NEUTROPHIL [2] was 11.67%, the “NUCLEATED RED BLOOD CELLS” value [2] was 0 /100WBC and the “PLATELET COUNT” value [2] was 1272.67 x10E3/uL. The “ALANINE AMINOTRANSFERASE” value [2] was 46 u/L, the ALBUMIN [2] was 4.23 G/DL and the “ALKALINE PHOSPHATASE” value [2] was 289.33 u/L. The “ASPARTATE AMINOTRANSFERASE” value [2] was 91 u/L, the “BLOOD UREA NITROGEN” value [2] was 19.33 mg/dL and the “CARBON DIOXIDE” value [2] was 24.67 mmol/L. For the same compound, the CHLORIDE [2] was 105.33 MEQ/L, the CHOLESTEROL [2] was 60.33 mg/dL and the “CREATINE PHOSPHOKINASE” value [2] was 609.33 u/L. The CREATININE [2] was 0.22 mg/dL, the GLUCOSE [2] was 167.33 mg/dL and the “LACTATE DEHYDROGENASE” value [2] was 458 u/L. For the same compound, the LIPASE [2] was 8.33 u/L, the PHOSPHORUS [2] was 12.8 mg/dL and the POTASSIUM [2] was 5.47 MEQ/L. The SODIUM [2] was 146.93 MEQ/L, the “TOTAL BILIRUBIN” value [2] was 0.13 mg/dL and the “TOTAL PROTEIN” value [2] was 5.8 G/DL. For the same compound, the “URIC ACID” value [2] was 1.37 mg/dL, the “ABSOLUTE BASOPHIL” value [3] was 0 CELLS/uL and the “ABSOLUTE EOSINOPHIL” value [3] was 0 CELLS/uL. For the same compound, the “ABSOLUTE LYMPHOCYTE” value [3] was 12487 CELLS/uL, the “ABSOLUTE MONOCYTE” value [3] was 388 CELLS/uL and the “ABSOLUTE SEGMENTED NEUTROPHIL” value [3] was 1291.67 CELLS/uL. For the same compound, the BASOPHIL [3] was 0%, the EOSINOPHIL [3] was 0% and the “ERYTHROCYTE COUNT” value [3] was 6.29 x10E6/uL. For the same compound, the HEMATOCRIT [3] was 38.27%, the HEMOGLOBIN [3] was 14.27 G/DL and the “LEUKOCYTE COUNT” value [3] was 14.17 x10E3/uL. For the same compound, the LYMPHOCYTE [3] was 88.33%, the “MEAN CORPUSCULAR HEMOGLOBIN” value [3] was 22.67 pg and the “MEAN CORPUSCULAR HEMOGLOBIN CONCENTRATION” value [3] was 37.3 G/DL. The “MEAN CORPUSCULAR VOLUME” value [3] was 60.77 fL, the MONOCYTE [3] was 2.67% and the NEUTROPHIL [3] was 9%. For the same compound, the “NUCLEATED RED BLOOD CELLS” value [3] was 0 /100WBC, the “PLATELET COUNT” value [3] was 1299 x10E3/uL and the “ALANINE AMINOTRANSFERASE” value [3] was 50 u/L. For the same compound, the ALBUMIN [3] was 4.4 G/DL, the “ALKALINE PHOSPHATASE” value [3] was 363 u/L and the “ASPARTATE AMINOTRANSFERASE” value [3] was 81.33 u/L. For the same compound, the “BLOOD UREA NITROGEN” value [3] was 14.67 mg/dL, the “CARBON DIOXIDE” value [3] was 23 mmol/L and the CHLORIDE [3] was 104 MEQ/L. The CHOLESTEROL [3] was 85.67 mg/dL, the “CREATINE PHOSPHOKINASE” value [3] was 178 u/L and the CREATININE [3] was 0.19 mg/dL. The GLUCOSE [3] was 178.67 mg/dL, the “LACTATE DEHYDROGENASE” value [3] was 95.67 u/L and the LIPASE [3] was 9.33 u/L. It also gave a PHOSPHORUS [3] of 13.57 mg/dL, a POTASSIUM [3] of 6.76 MEQ/L and an SODIUM [3] of 146.43 MEQ/L. For the same compound, the “TOTAL BILIRUBIN” value [3] was 0.23 mg/dL, the “TOTAL PROTEIN” value [3] was 6.37 G/DL and the “URIC ACID” value [3] was 3.2 mg/dL. The “ABSOLUTE BASOPHIL” value [4] was 0 CELLS/uL, the “ABSOLUTE EOSINOPHIL” value [4] was 131 CELLS/uL and the “ABSOLUTE LYMPHOCYTE” value [4] was 11771.67 CELLS/uL. The “ABSOLUTE MONOCYTE” value [4] was 175 CELLS/uL, the “ABSOLUTE SEGMENTED NEUTROPHIL” value [4] was 1055.67 CELLS/uL and the BASOPHIL [4] was 0%. The EOSINOPHIL [4] was 1%, the “ERYTHROCYTE COUNT” value [4] was 5.65 x10E6/uL and the HEMATOCRIT [4] was 34.67%. For the same compound, the HEMOGLOBIN [4] was 13 G/DL, the “LEUKOCYTE COUNT” value [4] was 13.13 x10E3/uL and the LYMPHOCYTE [4] was 89.67%. For the same compound, the “MEAN CORPUSCULAR HEMOGLOBIN” value [4] was 22.97 pg, the “MEAN CORPUSCULAR HEMOGLOBIN CONCENTRATION” value [4] was 37.5 G/DL and the “MEAN CORPUSCULAR VOLUME” value [4] was 61.37 fL. For the same compound, the MONOCYTE [4] was 1.33%, the NEUTROPHIL [4] was 8% and the “NUCLEATED RED BLOOD CELLS” value [4] was 0 /100WBC. The “PLATELET COUNT” value [4] was 1220 x10E3/uL, the “ALANINE AMINOTRANSFERASE” value [4] was 47.67 u/L and the ALBUMIN [4] was 4.2 G/DL. For the same compound, the “ALKALINE PHOSPHATASE” value [4] was 278 u/L, the “ASPARTATE AMINOTRANSFERASE” value [4] was 83.67 u/L and the “BLOOD UREA NITROGEN” value [4] was 18.33 mg/dL. The “CARBON DIOXIDE” value [4] was 25.67 mmol/L, the CHLORIDE [4] was 106.67 MEQ/L and the CHOLESTEROL [4] was 68.33 mg/dL. For the same compound, the “CREATINE PHOSPHOKINASE” value [4] was 322.33 u/L, the CREATININE [4] was 0.19 mg/dL and the GLUCOSE [4] was 144.33 mg/dL. The “LACTATE DEHYDROGENASE” value [4] was 436.33 u/L, the LIPASE [4] was 8.67 u/L and the PHOSPHORUS [4] was 11.6 mg/dL. For the same compound, the POTASSIUM [4] was 6.06 MEQ/L, the SODIUM [4] was 146.23 MEQ/L and the “TOTAL BILIRUBIN” value [4] was 0.2 mg/dL. For the same compound, the “TOTAL PROTEIN” value [4] was 5.9 G/DL and the “URIC ACID” value [4] was 1.03 mg/dL.

Reference: ChEMBL document CHEMBL3885881, “DrugMatrix”
